Reference: patent US11932601B2, “Immunoregulatory agents” (FLEXUS BIOSCIENCES, INC., priority 2014, dated 2024)

target: T1, human IDO1 (Homo sapiens, UniProt P14902); assay: HEK293 cells stably expressing human IDO1, IDO inhibition assay (kynurenine, Ehrlich reagent, absorbance 490 nm); format: cell-based; details: 20 hours incubation, 500 nM reference standard = 100% inhibition, read-out: HEK Human IDO-1 Biological Activity (IC50)
T1 construct: expressed in transfected cells
Method: HEK293 cells were transfected with a pCDNA-based mammalian expression vector harboring human IDO1 cDNA (NM 002164.2) by electroporation. They were cultured in medium (DMEM with 10% FBS) containing 1 mg/ml G418 for two weeks. Clones of HEK293 cells that stably expressed human IDO1 protein were selected and expanded for IDO inhibition assay.
The human IDO1/HEK293 cells were seeded at 10,000 cells per 50 μL per well with RPMI/phenol red free media contains 10% FBS in a 384-well black wall clear bottom tissue culture plate (Matrix Technologies LLC) 100 nL of certain concentration of compound was then added to each well using ECHO liquid handling systems. The cells were incubated for 20 hours in 37° C. incubator with 5% CO2.
The compound treatments were stopped by adding Trichloroacetic Acid (Sigma-Aldrich) to a final concentration at 0.2%. The cell plate was further incubated at 50° C. for 30 minute. The equal volume supernatant […] and 0.2% (w/v) Ehrlich reagent (4-dimethylaminobenzaldehyde, Sigma-Aldrich) in glacial acetic acid were mixed in a new clear bottom 384-well plate. This plate was then incubated at room temperature for 30 minute. The absorbance at 490 nm was measured on Envision plate reader.

T1 sequence (P14902 whole entry): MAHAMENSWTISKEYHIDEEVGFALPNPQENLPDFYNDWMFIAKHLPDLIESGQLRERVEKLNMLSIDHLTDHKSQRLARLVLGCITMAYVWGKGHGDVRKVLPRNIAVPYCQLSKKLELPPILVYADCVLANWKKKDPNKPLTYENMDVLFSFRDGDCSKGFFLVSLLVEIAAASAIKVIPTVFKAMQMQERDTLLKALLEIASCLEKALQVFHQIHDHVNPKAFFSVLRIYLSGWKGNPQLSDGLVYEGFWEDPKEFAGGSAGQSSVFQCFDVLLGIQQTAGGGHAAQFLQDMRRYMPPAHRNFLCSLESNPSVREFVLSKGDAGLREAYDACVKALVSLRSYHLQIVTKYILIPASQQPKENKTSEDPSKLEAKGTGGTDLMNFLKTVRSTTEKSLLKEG

| SMILES | IC50 [nM] |
| --- | --- |
| Cc1c(C2CCC(C(C)C(=O)Nc3ccc(Cl)cc3)CC2)ccnc1F (single isomer, unassigned) [Example 310c, N-(4-chlorophenyl)-2-(4-(2-fluoro-3-methylpyridin-4-yl)cyclohexyl) propanamide] | < 50 |
| Cc1c(C2CCC(C(C)C(=O)Nc3ccc(Cl)cc3)CC2)ccnc1F (single isomer, unassigned) [Example 310e, N-(4-chlorophenyl)-2-(4-(2-fluoro-3-methylpyridin-4-yl)cyclohexyl) propanamide] | < 50 |
| CC(C(=O)Nc1ccc(Cl)cc1)C1CCC(c2cccc(-c3ccccc3)c2)CC1 (single isomer, unassigned) [Example 317c, 2-(4-([1,1′-biphenyl]-3-yl)cyclohexyl)-N-(4-chlorophenyl) propanamide] | > 250 |
| Cc1nccc(C2CCC(C(C)C(=O)Nc3ccc(Cl)cc3)CC2)c1C (single isomer, unassigned) [Example 311d, N-(4-chlorophenyl)-2-(4-(2,3-dimethylpyridin-4-yl)cyclohexyl) propanamide] | < 50 |
| Cc1nccc(C2CCC(C(C)C(=O)Nc3ccc(Cl)cc3)CC2)n1 (centres unmarked) [Example 319a, N-(4-chlorophenyl)-2-(4-(2-methylpyrimidin-4-yl)cyclohexyl) propanamide] | < 250 |
| CC(C(=O)Nc1ccc(Cl)cc1)C1CCC(c2cccc(-c3ccccc3)c2)CC1 (single isomer, unassigned) [Example 317d, 2-(4-([1,1′-biphenyl]-3-yl)cyclohexyl)-N-(4-chlorophenyl) propanamide] | > 250 |
| Cc1nccc(C2CCC(C(C)C(=O)Nc3ccc(Cl)cc3)CC2)c1C (single isomer, unassigned) [Example 311c, N-(4-chlorophenyl)-2-(4-(2,3-dimethylpyridin-4-yl)cyclohexyl) propanamide] | > 250 |
| CC(C(=O)Nc1ccc(Cl)cc1)C1CCC(c2cc(-c3ccc(F)cc3)ncn2)CC1 (single isomer, unassigned) [Example 314b, N-(4-chlorophenyl)-2-(4-(6-(4-fluorophenyl)pyrimidin-4-yl)cyclohexyl) propanamide] | < 250 |
| Cc1c(C2CCC(C(C)C(=O)Nc3ccc(Cl)cc3)CC2)ccnc1F (single isomer, unassigned) [Example 310d, N-(4-chlorophenyl)-2-(4-(2-fluoro-3-methylpyridin-4-yl)cyclohexyl) propanamide] | < 50 |
| Cc1cc(C2CCC(C(C)C(=O)Nc3ccc(Cl)cc3)CC2)ccn1 (single isomer, unassigned) [Example 309a, N-(4-chlorophenyl)-2-(4-(2-methylpyridin-4-yl)cyclohexyl) propanamide] | > 250 |
| CC(=O)Nc1cc(C2CCC(C(C)C(=O)Nc3ccc(Cl)cc3)CC2)ccn1 (single isomer, unassigned) [Example 315a, 2-(4-(2-acetamidopyridin-4-yl)cyclohexyl)-N-(4-chlorophenyl) propanamide] | < 250 |
| Cc1c(C2CCC(C(C)C(=O)Nc3ccc(Cl)cc3)CC2)ccnc1F (single isomer, unassigned) [Example 310f, N-(4-chlorophenyl)-2-(4-(2-fluoro-3-methylpyridin-4-yl)cyclohexyl) propanamide] | < 250 |
| Cc1c(C2CCC(C(C)C(=O)Nc3ccc(Cl)cc3)CC2)ccnc1F (single isomer, unassigned) [Example 310b, (+/-)N-(4-chlorophenyl)-2-(4-(2-fluoro-3-methylpyridin-4-yl)cyclohexyl) propanamide] | < 50 |
| Cc1nccc(C2CCC(C(C)C(=O)Nc3ccc(Cl)cc3)CC2)c1C (single isomer, unassigned) [Example 311b, N-(4-chlorophenyl)-2-(4-(2,3-dimethylpyridin-4-yl)cyclohexyl) propanamide] | < 50 |
| CC(C(=O)Nc1ccc(Cl)cc1)C1CCC(c2cc(-c3ccc(F)cc3)ncn2)CC1 (centres unmarked) [Example 314a, N-(4-chlorophenyl)-2-(4-(6-(4-fluorophenyl)pyrimidin-4-yl)cyclohexyl) propanamide] | < 250 |

Now from value to compound:

| IC50 [nM] | SMILES |
| --- | --- |
| > 250 | CCC(C(=O)Nc1ccc(Cl)cc1)[C@H]1CC[C@H](Oc2ccncc2C(F)(F)F)CC1 (mixture of isomers) [Example 305, N-(4-Chlorophenyl)-2-(trans-4-((3-(trifluoromethyl)pyridin-4-yl)oxy)cyclohexyl)butanamide] |
| < 50 | Cc1cnccc1C1CCC(C(C)C(=O)Nc2ccc(Cl)cc2)CC1 (single isomer, unassigned) [Example 313f, N-(4-chlorophenyl)-2-(4-(3-methylpyridin-4-yl)cyclohexyl) propanamide] |
| < 50 | CCC(C(=O)Nc1ccc(Cl)cc1)[C@H]1CC[C@H](Oc2ccncc2C(F)(F)F)CC1 (single isomer, unassigned) [Example 305b, N-(4-Chlorophenyl)-2-((1r,4r)-4-((3-(trifluoromethyl)pyridin-4-yl)oxy)cyclohexyl)-2λ^3-butanamide] |
| < 250 | COc1cc([C@H]2CC[C@@H]([C@H](C)C(=O)Nc3ccc(Cl)cc3)CC2)ccn1 (single isomer, unassigned) [Example 307e, N-(4-Chlorophenyl)-2-(4-(2-methoxypyridin-4-yl)cyclohexyl)propanamide] |
| < 250 | CC(C(=O)Nc1ccc(Cl)cc1)C1CCC(c2ccnc(C(F)(F)F)c2)CC1 (single isomer, unassigned) [Example 312d, N-(4-chlorophenyl)-2-(4-(2-(trifluoromethyl)pyridin-4-yl)cyclohexyl) propanamide] |
| < 50 | Cc1cnccc1C1CCC(C(C)C(=O)Nc2ccc(Cl)cc2)CC1 (single isomer, unassigned) [Example 313a, N-(4-chlorophenyl)-2-(4-(3-methylpyridin-4-yl)cyclohexyl) propanamide] |
| < 50 | Cc1cnccc1C1CCC(C(C)C(=O)Nc2ccc(Cl)cc2)CC1 (single isomer, unassigned) [Example 313d, N-(4-chlorophenyl)-2-(4-(3-methylpyridin-4-yl)cyclohexyl) propanamide] |
| > 250 | CC(C(=O)Nc1ccc(Cl)cc1)C1CCC(c2ccnnc2)CC1 (single isomer, unassigned) [Example 316c, N-(4-chlorophenyl)-2-(4-(pyridazin-4-yl)cyclohexyl) propanamide] |
| < 50 | CC(C(=O)Nc1ccc(Cl)cc1)[C@H]1CC[C@H](Oc2ccnc(C(F)(F)F)c2)CC1 (mixture of isomers) [Example 323, (+/−)-N-(4-chlorophenyl)-2-(trans-4-((2-(trifluoromethyl)pyridin-4-yl)oxy)cyclohexyl) propanamide] |
| < 50 | CCC(C(=O)Nc1ccc(Cl)cc1)[C@H]1CC[C@@H](Oc2ccncc2)CC1 (single isomer, unassigned) [Example 306a, N-(4-Chlorophenyl)-2-(cis-4-(pyridin-4-yloxy)cyclohexyl)butanamide] |
| > 250 | CC(C(=O)Nc1ccc(Cl)cc1)C1CCC(c2ccnnc2)CC1 (single isomer, unassigned) [Example 316d, N-(4-chlorophenyl)-2-(4-(pyridazin-4-yl)cyclohexyl) propanamide] |
| < 50 | COc1cc([C@H]2CC[C@@H]([C@H](C)C(=O)Nc3ccc(Cl)cc3)CC2)ccn1 (single isomer, unassigned) [Example 307d, N-(4-Chlorophenyl)-2-(4-(2-methoxypyridin-4-yl)cyclohexyl)propanamide] |
| < 50 | CCC(C(=O)Nc1ccc(Cl)cc1)[C@H]1CC[C@@H](Oc2ccncc2)CC1 (mixture of isomers) [Example 306, N-(4-Chlorophenyl)-2-(cis-4-(pyridin-4-yloxy)cyclohexyl)butanamide] |
| < 50 | Cc1cc(C2CCC(C(C)C(=O)Nc3ccc(Cl)cc3)CC2)ccn1 (single isomer, unassigned) [Example 309b, N-(4-chlorophenyl)-2-(4-(2-methylpyridin-4-yl)cyclohexyl) propanamide] |
| > 250 | C[C@@H](C(=O)Nc1ccc(Cl)cc1)[C@H]1CC[C@H](Oc2ccnc(C(F)(F)F)c2)CC1 (single isomer, unassigned) [Example 324b] |
| > 250 | Cc1cnccc1C1CCC(C(C)C(=O)Nc2ccc(Cl)cc2)CC1 (single isomer, unassigned) [Example 313e, N-(4-chlorophenyl)-2-(4-(3-methylpyridin-4-yl)cyclohexyl) propanamide] |
| > 250 | CCC(C(=O)Nc1ccc(Cl)cc1)[C@H]1CC[C@H](Oc2ccncc2C(F)(F)F)CC1 (single isomer, unassigned) [Example 305a, N-(4-Chlorophenyl)-2-((1r,4r)-4-((3-(trifluoromethyl)pyridin-4-yl)oxy)cyclohexyl)-2λ^3-butanamide] |
| < 50 | COc1cc(C2CCC(C(C)C(=O)Nc3ccc(Cl)cc3)CC2)ccn1 (stereo not drawn) [Example 307a, Cis- or trans-N-(4-Chlorophenyl)-2-(4-(2-methoxypyridin-4-yl)cyclohexyl)propanamide] |
| < 250 | C[C@H](C(=O)Nc1ccc(Cl)cc1)[C@H]1CC[C@H](Oc2ccnc(C(F)(F)F)c2)CC1 (single isomer, unassigned) [Example 324a] |
| < 50 | Cc1cnccc1C1CCC(C(C)C(=O)Nc2ccc(Cl)cc2)CC1 (single isomer, unassigned) [Example 313b, N-(4-chlorophenyl)-2-(4-(3-methylpyridin-4-yl)cyclohexyl) propanamide] |
